PMC11274654 (Biomedicines, 2024)

Legend:
[1] = In vitro MTZ release in PBS and release kinetics models; assay type: physicochemical; design: Hixson–Crowell kHC / Zero-order K0 / First-order K1 / Higuchi kH: unit not given here; details: in PBS
Description: To evaluate the release kinetics profile of MTZ, a formulation containing 10 mg equivalent of MTZ was injected into 200 mL of the PBS medium (37 ± 0.5 °C) using a 20-gauge needle. The formulation immediately turned into a gel upon contact with the dissolution medium. The dissolution vials were placed on a reciprocating bath-shaker and left for continuous shaking throughout the dissolution study. A total of 2 mL of aliquots were withdrawn and replaced with an equal volume of fresh PBS to maintain the sink condition. The dissolution study was conducted for a duration of 24 h. The samples were filtered through a syringe filter (0.22 μm). The MTZ concentrations were analyzed spectrophotometrically (294 nm) after appropriate dilution, with PBS as a blank for background correction. The measured concentrations were presented as the mean ± standard deviation (SD).
To understand the drug release kinetics, data obtained from the release study were fitted into various kinetics models: zero-order, first-order, Higuchi, Korsmeyer–Peppas, and Hixson–Crowell. The DD solver Excel add-in program was utilized to compare and identify the mechanism of drug release.

[2] = system: bone regeneration at the callus site in OVX rats; experiment: Femur osteotomy model in osteopenic OVX rats, oral MTZ; assay type: in vivo, ovariectomized osteopenic SD rats; details: 235 mg/kg oral, 12 days
Description: Femur osteotomy was carried out in adult female Sprague Dawley (SD) rats (200 ± 20 g, 3 months old) and 3-month post-ovariectomized osteopenic SD rats (280 ± 20 g, 6 months old) by inserting a drill bit with a diameter of 0.8 mm from the anterior to the posterior mid-diaphysis of the right femur.
The human equivalent dose for rats is 235 mg/kg; half of this amount, 117 mg/kg, was used for the study. Doses of MTZ (117 mg/kg and 235 mg/kg) were administered daily by the oral route for 12 days. For the formulation study, MTZ@In situ gel and unformulated MTZ were administered every 3 days (total of 4 injections) for a period of 12 days via the subcutaneous route in the osteotomy animal. Each rat received 20 mg/kg, s.c. of bone-seeking fluorochrome calcein 24 h before sacrifice in order to evaluate the new bone formation at the fractured callus.
A SkyScan 1076 μCT scanner (SkyScan, Ltd., Kartuizersweg, Kontich, Belgium) was used to perform a high-resolution μCT for the two-dimensional and three-dimensional assessment of excised bones. The rat bone scanning process used an isotropic voxel pixel size of 18 μm and an X-ray source of 70 kV and […]. Utilizing the SkyScan Nrecon software (Version: 1.7.0.4), cross-sectional reconstruction was performed. […] The Batman software (Version: 1.16.8.0+), with trabecular (3D) bone analysis programs was used for quantification.

[3] = system: β-catenin nuclear translocation in osteoblasts (RCO); experiment: Immunofluorescence of β-catenin nuclear translocation in RCO; assay type: cell-based, rat; details: 10 nM
Description: RCOs were grown on Lab-Tek Chamber Slides (Nunc, Penfield, NY, USA) to 40–50% confluence for 24 h. After treatment with MTZ at different time points, cells were fixed with 4% formaldehyde, followed by permeabilization with 0.1% Triton™ X-100 for 15 min, blocked with 2% goat serum for 2 h, and labeled with primary antibody against β-catenin (Cell Signaling Technology, Danvers, MA, USA, catalog number 9562S) (1:100) overnight at 4 °C in a moist chamber. Alexa Fluor® 594 (Abcam, Cambridge, UK, catalog number ab150080) was used as a secondary antibody (1:200 dilution) for 2 h at room temperature. […]

rat BMSCs (rBMSCs) = experiment: BrdU proliferation assay in rBMSCs; assay type: cell-based; details: 1 nM
Description: Rat and mouse bone marrow stromal cells (BMSCs) were seeded at a density of 4000 cells/well in a 96-well plate for cell proliferation and treated with 1 nM of MTZ for 48 h in a growth medium (α-MEM containing 10% FBS). Following the MTZ treatment, the cells were incubated for 4 h with bromodeoxyuridine (BrdU) before termination. Cell proliferation was assessed at 450 nm using the Roche Diagnostics BrdU ELISA kit, in accordance with the manufacturer’s protocol, using a reference wavelength of 690 nm.

mouse BMSCs (mBMSCs) [4] = experiment: Nodule mineralization (Alizarin Red S) in mBMSCs; assay type: cell-based; details: 21 days post-treatment, differentiation medium
Description: Rat and mouse BMSCs were seeded at a density of 1 × 10^6 cells/well in a 6-well plate, vehicle or MTZ (1 nM) treatment was conducted, and the media were changed every alternate day for 21 days using a differentiation medium [10% FBS, β-glycerophosphate (10 mM), ascorbic acid (50 µg/mL), and dexamethasone (100 nM) in α-MEM].
Cells were fixed with 10% formalin for 15 min and stained with Alizarin Red for 1 h after 21 days of culture. Moreover, 10% cetylpyridinium chloride (Sigma #C0732) was used to quantify mineralized nodules at a 595 nm wavelength.

mouse BMSCs (mBMSCs) [5] = experiment: ALP activity in mouse bone marrow stromal cells; assay type: cell-based; details: 1 nM, seven days post-treatment

Cc1ncc([N+](=O)[O-])n1CCO [Metronidazole]
First-order K1 [1]: 0.08 ± 0.00
First-order R^2 [1]: 0.84 ± 0.00
Higuchi R^2 [1]: 0.71 ± 0.00
Higuchi kH [1]: 16.34 ± 0.12
Hixson–Crowell R^2 [1]: 0.86 ± 0.01
Hixson–Crowell kHC [1]: 0.02 ± 0.00
Korsmeyer–Peppas R^2 [1]: 0.81 ± 0.01
Korsmeyer–Peppas kKP [1]: 8.64 ± 0.11
Korsmeyer–Peppas n (release exponent) [1]: 0.78 ± 0.01
Zero-order K0 [1]: 4.77 ± 0.05
Zero-order R^2 [1]: 0.76 ± 0.01
Bone volume at the callus site compared to the control group [2]: increased
Calcein intensity at the callus site compared to the control group [2]: increased
β-catenin nuclear translocation [3]: induced
Proliferation (BrdU incorporation) (rat BMSCs (rBMSCs)): did not affect
Osteogenic differentiation and mineralized nodule formation (mouse BMSCs (mBMSCs) [4]): stimulated
ALP activity compared to the vehicle group (mouse BMSCs (mBMSCs) [5]): increased
